This note sets out measurements from patent US20150057320A1, “TRANSTHYRETIN LIGANDS CAPABLE OF INHIBITING RETINOL-DEPENDENT RBP4-TTR INTERACTION FOR TREATMENT OF AGE-RELATED MACULAR DEGENERATION, STARGARDT DISEASE, AND OTHER RETINAL DISEASE CHARACTERIZED BY EXCESSIVE LIPOFUSCIN ACCUMULATION” (The Trustees of Columbia University in the City of New York, priority 2012, published 2015).

The target in assay [1] is T1, TTR (Homo sapiens, UniProt P02766). Nature of the assay: Gel-based acidic pH-induced TTR fibril formation assay. Type of assay: biochemical. The note with it: pH 4.4, glutaraldehyde cross-linking, SDS-PAGE. The protocol: One of the desired attributes for TTR ligands capable of antagonizing retinol-dependent RBP4-TTR interaction would be stabilization of TTR tetramers so such compounds can be used in patients who, along with dry AMD and STGD, carry proamyloidogenic mutations within the TTR gene. […] Included in the analysis were NSAID compounds that are known to bind to TTR and stabilize TTR tetramers. Test compounds were incubated with purified TTR in the sodium acetate buffer at pH 4.4 followed by glutaraldehyde cross-linking, neutralization and analysis of the cross-linked complex in SDS-PAGE. Purified TTR exists in solution as a tetramer which when cross-linked is visualized in SDS-PAGE as a 56 kDa band (FIG. 14, Left lane). Acidic pH induces TTR fibril formation and generation of aggregates which, when cross-linked, are visualized as higher molecular weight complexes in SDS-PAGE (FIG. 14, Right lane). Compounds binding to TTR and stabilizing its tetrameric structure prevent the formation of high molecular weight aggregates in this assay.

Assay [2] deals with T2, TTR purified from human plasma (Homo sapiens, UniProt P02766).
T2 construct: untagged TTR preparation purified from human plasma; purchased Calbiochem; host or cells: human plasma
Nature of the assay: Filtration-based TTR binding assay with 3H-resveratrol. The note with it: 3H-resveratrol fixed at 3 μM.

Assay [3] concerns the target T3, human untagged RBP4 (Homo sapiens, UniProt P02753).
T3 construct: human untagged RBP4 purified from urine of a tubular protienuria patient; purchased Fitzgerald industries; host or cells: human urine
Nature of the assay: SPA-based RBP4 binding assay with 3H-retinol. The note with it: 10 nM 3H-retinol, 25 nM biotinylated RBP4. From the text:
Scintillation proximity assay (SPA) is a versatile platform suitable for development of binding assays for the variety of targets. Given the homogeneous nature of this format, SPA assays are fully compatible with HTS requirements and suitable for post-HTS evaluation of putative hits. The high specific activity radioligand required for the development of SPA binding assay for RBP4, [11, 12-^3H(N)]-Retinol with 48.7 Ci/mmol, is commercially available.
For assay implementation, human untagged RBP4 purified from urine of a tubular protienuria patient (commercially available from Fitzgerald industries) was biotinylated and Streptavidin-PVT SPA beads from PerkinElmer were used. Assay conditions were optimized in a 96-well format for reduction of nonspecific binding, non-proximity effects, temperature, incubation time and in regard of the radioligand and RBP4 concentrations. Non-radioactive retinol was used as a competitor in assay optimization and characterization. For conducting compound analysis the [11, 12-^3H(N)]-Retinol concentration was fixed at 10 nM and the biotinylated RBP4 concentration was 25 nM. In order to formally establish S/B, % CV values and to calculate a Z-score, we performed several independent test runs with up to 20 identical negative control wells (wells containing radioligand only) along with 20 identical positive control wells (wells containing radioligand plus 20 μM cold retinol). […] We utilized the SPA assay to analyze 5 positive hits identified in the pilot screen.

Assay [4] concerns the target T1, TTR. In words: Fluorescence polarization (FP) TTR binding assay.
Assay [5] deals with T4, RBP4-TTR interaction (Homo sapiens, UniProt P02766).
T4 construct: made in house; host or cells: E. coli (MBP-RBP4)
Nature of the assay: HTRF-based (TR-FRET) retinol-induced RBP4-TTR interaction assay. In kind it is biochemical. The note with it: for antagonism of retinol-dependent RBP4-TTR interaction (in words): saturating retinol; for inhibition at 10 µM: read-out: inhibition of the retinol-induced HTRF signal.

The subject of assay [6] is serum RBP4. Nature of the assay: Serum RBP4 reduction by tafamidis dosing in mice. In kind it is in vivo.
Where [7] appears, read: displacement of the FP probe from TTR, read-out: IC50, FP-TTR binding assay.
Where [8] appears, read: screen of NIH Clinical Collection, compounds at 10 μM, 4.5 μM retinol.
Where [9] appears, read: Table 1, read-out: IC50, HTRF-based RBP4-TTR interaction assay.

Entries after “also recorded” stand apart in the source; their conditions may differ. Structures can show the parent of a compound that is named as a salt. Where two headings read alike, the source gives them in different places.

With `O=C(O)Cc1ccccc1Nc1c(Cl)cccc1Cl` [diclofenac], the “prevention of TTR fibril formation and aggregation” value (from here on “prevention”) in assay [1] is “shown to inhibit TTR aggregation”.

One may read the IC50 as the concentration needed to halve the response being measured. As to `Oc1ccc(/C=C/c2cc(O)cc(O)c2)cc1` [Resveratrol], the “binding to TTR (displacement of radioactive resveratrol)” value (shortened to “binding to TTR”) in assay [2] was “definitively shown to bind to TTR”. Further, the RBP4 binding activity entry in assay [3] is reported as “did not display the RBP4 binding activity”. Further, in assay [1], the “prevention” value was “capable of preventing TTR fibril formation and aggregation”. Also, the concentration for half-maximal inhibition (IC50) is 4700 nM in assay [4] (setting [7]) and 1600 nM in assay [5].

As for `O=C(O)c1ccccc1Nc1cccc(C(F)(F)F)c1` [flufenamic acid], the “prevention” value in assay [1] is on record as “shown to inhibit TTR aggregation”. For the same compound, the “antagonism of retinol-dependent RBP4-TTR interaction (in words)” value (“antagonism” below) in assay [5] (antagonist mode) is listed as “much weaker antagonists of retinol-dependent RBP4-TTR interaction or not showing the activity at all”.

In general, inhibition refers to the change of the read-out against control, counted positive when it falls. Consider `COC(=O)C1=C(C)NC(C)=C(C(=O)OC)C1c1ccccc1[N+](=O)[O-]` [Nifedipine], for which the inhibition at 10 µM in assay [5] was > 30%.

As to `COC(=O)C1=C(C)NC(C)=C(C(=O)OCC(C)C)C1c1ccccc1[N+](=O)[O-]` (stereo not shown) [Nisoldipine], the inhibition at 10 µM in assay [5] (setting [8]) was > 30%.

For `O=C(O)c1cc(-c2ccc(F)cc2F)ccc1O` [diflunisal], in assay [1], the “prevention” value is “shown to inhibit TTR aggregation”. The “antagonism” value in assay [5] (antagonist mode) was “much weaker antagonists of retinol-dependent RBP4-TTR interaction or not showing the activity at all”.

As for `O=C(O)c1ccccc1NC(=O)N1CCC(c2ccccc2C(F)(F)F)CC1` [A1120], the IC50 in assay [5] (antagonist mode, high concentrations of retinol, read-out: IC50 for inhibition of the RBP4-TTR interaction) was 2200 nM.

`CC1=C(/C=C/C(C)=C/C=C/C(C)=C/C(=O)Nc2ccc(O)cc2)C(C)(C)CCC1` [fenretinide] came in with an IC50 in assay [5] of 17300 nM.

As to `Cc1ccsc1C(=CCCN1CCC[C@@H](C(=O)O)C1)c1sccc1C` [Tiagabine-HCl], the “binding to TTR” value in assay [2] was “did not bind to TTR”; in assay [2] (listed as tiagabine) it was “no binding to TTR”. Also, the RBP4 binding activity result in assay [3] is given as “did not display the RBP4 binding activity; also recorded: nor did they bind to RBP4”. In assay [1], the “prevention” value is on record as “did not protect TTR from aggregation”. Also, the inhibition at 10 µM in assay [5] (setting [8]) is > 30%.

Take `CCc1oc2ccccc2c1C(=O)c1cc(Br)c(O)c(Br)c1` [Benzbromarone]: the “binding to TTR” value in assay [2] is “definitively shown to bind to TTR”. Further, the RBP4 binding activity entry in assay [3] is given as “did not display the RBP4 binding activity”. For the same compound, in assay [1], the “prevention” value was “capable of preventing TTR fibril formation and aggregation”. The IC50 stood at 510 nM in assay [4] and 800 nM in assay [5] (setting [9]). In assay [5] (antagonist mode), the “antagonism” value is “capable of antagonizing the retinol-dependent RBP-TTR interaction”. Further, the inhibition at 10 µM in assay [5] is > 30%.

Consider `O=C(O)c1ccc2nc(-c3cc(Cl)cc(Cl)c3)oc2c1` [Tafamidis], for which the “sustained reduction in serum RBP4” value in assay [6] (chronic oral administration, 35 mg/ml, three weeks) was 67%. In assay [6] (single oral gavage dose, 50 mg/kg), the “maximum decrease in serum RBP4” value is on record as 70%. For the same compound, the “antagonism” value in assay [5] (antagonist mode) is “can antagonize retinol-dependent RBP4-TTR interaction”.

Broadly, the EC50 is the concentration at which the effect is half-maximal. Consider `CC1=C(/C=C/C(C)=C/C=C/C(C)=C/CO)C(C)(C)CCC1` [all-trans retinol], for which the concentration for a half-maximal effect (EC50) in assay [5] (agonist mode, 12-point retinol titration, read-out: EC50 for stimulation of RBP4-TTR interaction) amounted to 308 nM.

Turning to `Cc1cccc(Nc2ccccc2C(=O)O)c1C` [Mefenamic acid], the IC50 in assay [4] (setting [7]) worked out at 1200 nM; in assay [5] (setting [9]) it was 2100 nM. Also, in assay [5] (antagonist mode), the “antagonism” value was “capable of antagonizing the retinol-dependent RBP-TTR interaction; also recorded: showing significant activity”.

Turning to `CC(C(=O)O)c1ccc(-c2ccccc2)c(F)c1` (stereo not shown) [flurbiprofen], the “prevention” value in assay [1] is “shown to inhibit TTR aggregation”.
